Data: patent US9194862B2, “Compositions and methods for determining cancer stem cell self-renewal potential” (THE REGENTS OF THE UNIVERSITY OF CALIFORNIA, priority 2009, dated 2015)

What was measured:
[1] = tested on: progenitors (CD34+CD38+Lin−) from CML BC-derived tumors; assay: CML BC progenitor engraftment in transplanted mice, FACS of human CD45+ cells in liver; type: in vivo; details: oral gavage daily for 3 weeks, 120 μg/kg, vs vehicle, FACS of livers, n=4 vs n=5, p=0.03
Experimental: Briefly, immunocompromised neonatal mice were transplanted intrahepatically with luciferase GFP transduced myeloid sarcomas from mice transplanted with BC CSC, the methodology described in Geron et al, Cancer Cell 2008; 13(4):321-30. […] Engraftment levels were determined by FACS analysis of human CD45^+ expression in mouse livers on […] post-transplant.
FIG. 3C. Left: qPCR analysis of Mcl-1 long (blue) and short (red) transcripts from progenitors (CD34^+CD38^+Lin^−) of several normal and CML samples. […] FIG. 4 below. […] FIG. 4A. […] Representative FACS data of CD45^+ cells in mouse livers transplanted with progenitors (CD34^+CD38^+Lin^−) from CML BC-derived tumors. […] Mouse livers were harvested at 13 weeks post-transplant, stained, and analyzed for human CD45^+ cells using FACS. • FIG. 4C.

[2] = tested on: Mcl-1 long and short isoform; assay: qPCR of Mcl-1 long and short isoforms in tumor cells harvested from treated mice; type: in vivo; details: tumor cells from treated mice (n=3) vs vehicle (n=2)
Description: For gene expression analysis, cDNA was made from RNA isolated from sorted progenitor populations (CD34^+CD38^+Lin^−). Isoform specific RT-PCR was used to determine expression levels of Bcl-2, Bcl-X, and Mcl-1 isoforms. Expression was confirmed using qPCR.

`Cc1cc2c(C(C)C)c(O)c(O)cc2c(O)c1-c1c(C)cc2c(C(C)C)c(O)c(O)cc2c1O` [apogossypol] was tested, and the “number/frequency of human CD45+ cells engrafted in the mouse liver (tumor cell engraftment)” value [1] was “statistically significant (p=0.03) decrease in tumor cell engraftment”, the “number/frequency of human CD45+ cells engrafted in the mouse liver (tumor cell engraftment)” value ([1]; listed as Apogossypol) was “statistically significant decrease” and the “Mcl-1 short isoform expression” value [2] was “higher Mcl-1 short isoform expression”.
